Measurements reported in patent US9125835B2, “Synergistic combinations to reduce particle dose for targeted treatment of cancer and its metastases” (priority 2010, dated 2015).

Legend:
[1] = In vivo CPT plasma concentrations after single IV injection; details: IV injection of free CPT (2 mg/kg)
Procedure: Values are reported as mean ±SD.
(§1) This was determined by preparing PEGylated 6 μm polystyrene MPs with three copies of the norvaline (Nva) α-amino acid prodrug of CPT. […] Anti-cancer efficacy was evaluated in an orthotopic rat lung cancer model and compared to a bolus injection of CPT.

A549 cell = assay: Anti-cancer efficacy in orthotopic rat lung cancer model (A549 cell inoculation); assay type: in vivo, nude rats; details: IV every 3 days for 27 days; free CPT 2 mg/kg, CPT-Nva-MPs 0.2 mg/kg CPT
Procedure: as §1
The treatment was conducted every 3 days for 27 days. The day after the last treatment, all animals were euthanized, and organs (lung, heart, […], spleen and […]) were dissected and weighed. The organs were fixed in 10% neutral buffered formalin for H & E staining.

caspase 3/7 = details: A549 cells, 24 hours; 1 μM paclitaxel alone or with 1 mM R-ALA
Procedure: Cell viability (FIG. 11—left) and caspase 3/7 activation (apoptosis) (FIG. 11—right) of A549 cells were evaluated in response to a low dose (˜EC5-EC20) of paclitaxel alone (1 μM), low dose paclitaxel +R-ALA (1 mM) or a solvent control (0.1% DMSO). Cell viability was determined with AlamarBlue® assay. Caspase 3/7 activation was determined as a measure of apoptosis using a fluorometric assay kit (Biovision, Mountain View, Calif.). A549 cells were treated with solvent control (0.1% DMSO), 1 μM paclitaxel, and 1 μM paclitaxel+1 mM R-ALA for 24 hours.

| SMILES | systemic exposure (CPT plasma) [1] | areas of lung cancer versus untreated animals (A549 cell) | caspase 3/7 activation relative to controls (caspase 3/7) [fold] |
| --- | --- | --- | --- |
| CC[C@@]1(O)C(=O)OCc2c1cc1n(c2=O)Cc2cc3ccccc3nc2-1 [free CPT, camptothecin] | high but short-lived systemic exposures | smaller areas of lung cancer | – |
| CC(=O)O[C@H]1C(=O)[C@@]2(C)[C@H]([C@H](OC(=O)c3ccccc3)[C@]3(O)C[C@H](OC(=O)[C@H](O)[C@@H](NC(=O)c4ccccc4)c4ccccc4)C(C)=C1C3(C)C)[C@]1(OC(C)=O)CO[C@@H]1C[C@@H]2O [paclitaxel] | – | – | 1.5 |
